Data reported in publication PMC8026785, “The pharmacokinetics of [^18F]UCB-H revisited in the healthy non-human primate brain” (EJNMMI Research, 2021).
Where “and” joins values, the source holds several entries; their conditions need not be identical. Equal values may be shown once.

Molecular target: T1, SV2A (Macaca fascicularis, UniProt Q4R4X3)
T1 construct: The current study evaluates [^18F]UCB-H pharmacokinetics in healthy NHPs; from tissue; host or cells: brain of living healthy cynomolgus monkeys (in vivo PET)
Test: Brain PET kinetic modelling (1TCM, 2TCM, 2TCM-c, Logan), test-retest
Assay type: in vivo, cynomolgus monkeys (Macaca fascicularis)
Protocol: All four non-human primates (NHP) underwent a 2-h (2 h) test and retest PET scan; two NHP underwent an additional 4-h (4 h) retest PET scan. Three NHP underwent one 4-h (4 h) displacement PET scan. Arterial blood sampling was performed during test and retest scans with PET imaging spaced by at least 3 weeks between each scan. To this end, the femoral artery opposite to the saphenous vein used for radioligand injection was cannulated. For the 2-h (2 h) scans, we collected in total 28 blood samples of 1 mL: 16 samples during the first 5 min followed by […] every 5 min and […] every 10 min. For the 4 h scans, we collected an additional 6 samples every 20 min during the last two hours (34 samples in total). Larger samples (2 – 3 mL) were collected at 5, 15, 30, 60, 90, 120 min (2 h) and at 180, 240 min (4 h) for metabolite analysis. Displacement of [^18F]UCB-H was done by intravenous (IV) administration 90 min after [^18F]UCB-H injection of a bolus of 30 mg/kg LEV, or of 80 µg/kg (≈250 nmol/kg) or 5 mg/kg (≈15 µmol/kg) of cold [^19F]-UCB-H. Full experimental design of all NHP is outlined in Additional file 1: Table 1.
PET imaging was performed on the microPET FOCUS220 (Siemens) under standard anesthesia and monitoring procedures. Data acquisition started with the IV bolus injection of [^18F]UCB-H (32.9 ± 1.0 MBq/kg, 0.35 ± 0.07 µg/kg). Dynamic PET images were reconstructed using standard OSEM-2D algorithms while correcting for radioactive decay, scatter, attenuation and detectors inhomogeneity, which were measured prior to PET scanning using respectively ^57Co and ^68Ge external sources.
PET image analysis was performed using PMOD software version 3.8 (PMOD Technologies Ltd., Zurich, Suisse). After individual co-registration of PET-MR images, a cynomolgus atlas published by Ballanger and coworkers was normalized to PET images to extract time activity curves in different brain regions. Volumes of interest (VOI) were cerebral white matter (16.7 cm^3), striatum (0.24 cm^3), thalamus (0.89 cm^3), cerebellum (3.83 cm^3), frontal—(2.50 cm^3), parietal—(5.35 cm^3), and temporal (8.22 cm^3) cortex, and whole brain (72.2 cm^3) as a composite region of all regions in the atlas. [^18F]UCB-H pharmacokinetics were evaluated by analyzing the time activity curves of the test- and retest scans using 1- and 2-tissue compartment models (unconstrained and constrained with global K1/k2 coupled fit across all regions, further referred to as 2TCM and 2TCM-c), and Logan graphical analysis with a fixed t* at 60 min [33] using the arterial plasma input function corrected for radio-metabolites to derive the volume of distribution in each region. Percentage standard error (%SE) was estimated from the theoretical parameter covariance matrix. Only reliable estimates (%SE less than 25%) were included in the current analyses. For the three drug studies, percent displacement of the total activity in the whole brain was estimated relative to an average baseline constructed from the two 4 h baseline studies. Briefly, Standardized Uptake Value (SUV) time activity curves (TACs) were calculated for the two baseline and the three displacement studies. Then, each curve was normalized to the SUV at t = 90 min, corresponding to the timeframe immediately before the administration of the drugs in the displacement studies. Baseline curves were averaged and the percent displacement of total activity was calculated as (baseline-displacement)/baseline at a given time post drug administration (see “Results”).
Statistical analysis was performed using R software (version 3.3.1.). Plasma, intact parent fraction and time activity curves were statistically compared between subjects using a one-factor variance analysis. Absolute Test–Retest variability (aTRV) of PET quantification parameters was calculated as ABS(test—retest) / AVERAGE(test, retest). […]

[1] = Temporal Cortex, Retest, individual NHP
[2] = Temporal Cortex, Test, individual NHP
[3] = Thalamus, Retest, individual NHP

T1 sequence (Q4R4X3 whole entry): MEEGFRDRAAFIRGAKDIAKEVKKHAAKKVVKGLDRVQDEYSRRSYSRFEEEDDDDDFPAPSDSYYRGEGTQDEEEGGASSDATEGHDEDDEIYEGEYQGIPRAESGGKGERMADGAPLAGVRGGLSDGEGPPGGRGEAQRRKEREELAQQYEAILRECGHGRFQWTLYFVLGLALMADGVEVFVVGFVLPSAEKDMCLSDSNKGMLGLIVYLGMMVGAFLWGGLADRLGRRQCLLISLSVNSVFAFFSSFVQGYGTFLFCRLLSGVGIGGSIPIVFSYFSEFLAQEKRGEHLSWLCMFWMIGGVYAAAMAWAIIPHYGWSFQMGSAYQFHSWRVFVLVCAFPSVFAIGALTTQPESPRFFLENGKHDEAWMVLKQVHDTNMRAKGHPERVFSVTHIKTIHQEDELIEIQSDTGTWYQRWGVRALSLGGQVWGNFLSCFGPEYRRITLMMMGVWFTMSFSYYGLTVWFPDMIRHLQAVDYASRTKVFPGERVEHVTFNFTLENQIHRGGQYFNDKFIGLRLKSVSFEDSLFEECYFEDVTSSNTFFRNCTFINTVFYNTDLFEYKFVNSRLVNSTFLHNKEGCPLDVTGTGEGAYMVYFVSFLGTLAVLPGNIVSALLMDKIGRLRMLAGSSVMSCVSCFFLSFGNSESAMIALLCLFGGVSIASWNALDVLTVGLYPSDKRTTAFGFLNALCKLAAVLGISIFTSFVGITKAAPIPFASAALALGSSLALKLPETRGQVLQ

- VT (Logan (t* = 60)) (Striatum, Retest, mean): 15.7 mL/cm^3
- k3/k4 (BPND) (2TCM-c) (Striatum, Retest, mean): 1.12
- VT (2TCM) (Striatum, Test, individual NHP): 13.09 ml/cm^3 and 17.60 ml/cm^3
- k3/k4 (2TCM) (Striatum, Test, individual NHP): 0.69
- k3/k4 (2TCM-c) (Striatum, Test, individual NHP): 1.74 and 1.24 and 0.50
- VT (1TCM) (Striatum, Test, mean): 14.2 mL/cm^3
- VT (2TCM) (Striatum, Test, mean): 15.3 mL/cm^3
- VT (2TCM-c) (Striatum, Test, mean): 15.0 mL/cm^3
- VT (Logan (t* = 60)) (Striatum, Test, mean): 15.8 mL/cm^3
- k3/k4 (BPND) (2TCM-c) (Striatum, Test, mean): 1.16
- VT (2TCM) [1]: 13.97 ml/cm^3 and 13.95 ml/cm^3
- k3/k4 (2TCM-c) [1]: 0.60 and 2.03 and 0.29
- VT (2TCM) [2]: 12.30 ml/cm^3 and 15.50 ml/cm^3
- k3/k4 (2TCM) [2]: 0.72
- k3/k4 (2TCM-c) [2]: 1.00 and 1.58 and 0.41
- ICC of Logan (t* = 60) VT (Temporal cortex): 0.61
- aTRV of 2TCM-c VT (Temporal cortex): 25%
- aTRV of Logan (t* = 60) VT (Temporal cortex): 13%
- VT (1TCM) (Temporal cortex, Retest, mean): 13.0 mL/cm^3
- VT (2TCM) (Temporal cortex, Retest, mean): 14.0 mL/cm^3
- VT (2TCM-c) (Temporal cortex, Retest, mean): 13.1 mL/cm^3
- VT (Logan (t* = 60)) (Temporal cortex, Retest, mean): 13.9 mL/cm^3
- k3/k4 (BPND) (2TCM-c) (Temporal cortex, Retest, mean): 0.97
- VT (1TCM) (Temporal cortex, Test, mean): 12.9 mL/cm^3
- VT (2TCM) (Temporal cortex, Test, mean): 13.9 mL/cm^3
- VT (2TCM-c) (Temporal cortex, Test, mean): 14.8 mL/cm^3
- VT (Logan (t* = 60)) (Temporal cortex, Test, mean): 14.1 mL/cm^3
- k3/k4 (BPND) (2TCM-c) (Temporal cortex, Test, mean): 1.00
- ICC of Logan (t* = 60) VT (Thalamus): 0.61
- aTRV of 2TCM-c VT (Thalamus): 18%
- aTRV of Logan (t* = 60) VT (Thalamus): 12%
- VT (2TCM) [3]: 11.88 ml/cm^3 and 14.03 ml/cm^3
SMILES: O=C1C[C@H](c2cc(F)c(F)c(F)c2)CN1Cc1ccncc1[18F] [[^18F]UCB-H]
- K1 (2TCM) (Striatum, Test, individual NHP): 0.24 ml/cm^3 /min and 0.25 ml/cm^3 /min and 0.51 ml/cm^3 /min and 0.63 ml/cm^3 /min
- K1 (2TCM-c) (Striatum, Test, individual NHP): 0.24 ml/cm^3 /min and 0.26 ml/cm^3 /min and 0.53 ml/cm^3 /min and 0.63 ml/cm^3 /min
- K1/k2 (2TCM) (Striatum, Test, individual NHP): 10.32 ml/cm^3 and 7.75 ml/cm^3 and 12.01 ml/cm^3 and 15.06 ml/cm^3
- K1/k2 (2TCM-c) (Striatum, Test, individual NHP): 7.86 ml/cm^3 and 4.35 ml/cm^3 and 8.22 ml/cm^3 and 10.99 ml/cm^3
- VT (1TCM) (Striatum, Test, individual NHP): 12.87 ml/cm^3 and 11.31 ml/cm^3 and 16.41 ml/cm^3 and 16.40 ml/cm^3
- VT (2TCM-c) (Striatum, Test, individual NHP): 14.78 ml/cm^3 and 11.92 ml/cm^3 and 16.73 ml/cm^3 and 16.50 ml/cm^3
- VT (Logan) (Striatum, Test, individual NHP): 15.21 ml/cm3 and 12.85 ml/cm3 and 17.23 ml/cm3 and 17.97 ml/cm3
- K1 (2TCM) [1]: 0.31 ml/cm^3 /min and 0.45 ml/cm^3 /min and 0.29 ml/cm^3 /min and 0.36 ml/cm^3 /min
- K1 (2TCM-c) [1]: 0.32 ml/cm^3 /min and 0.48 ml/cm^3 /min and 0.30 ml/cm^3 /min and 0.36 ml/cm^3 /min
- K1/k2 (2TCM) [1]: 11.50 ml/cm^3 and 9.63 ml/cm^3 and 11.78 ml/cm^3
- K1/k2 (2TCM-c) [1]: 7.25 ml/cm^3 and 4.64 ml/cm^3 and 9.07 ml/cm^3 and 10.70 ml/cm^3
- VT (1TCM) [1]: 11.57 ml/cm^3 and 13.96 ml/cm^3 and 13.50 ml/cm^3 and 13.13 ml/cm^3
- VT (2TCM-c) [1]: 11.57 ml/cm^3 and 14.06 ml/cm^3 and 13.53 ml/cm^3
- VT (Logan) [1]: 11.91 ml/cm3 and 13.90 ml/cm3 and 16.34 ml/cm3 and 13.54 ml/cm3
- K1 (2TCM) [2]: 0.17 ml/cm^3 /min and 0.23 ml/cm^3 /min and 0.37 ml/cm^3 /min and 0.44 ml/cm^3 /min
- K1 (2TCM-c) [2]: 0.17 ml/cm^3 /min and 0.24 ml/cm^3 /min and 0.37 ml/cm^3 /min and 0.44 ml/cm^3 /min
- K1/k2 (2TCM) [2]: 11.10 ml/cm^3 and 7.16 ml/cm^3 and 8.97 ml/cm^3 and 12.30 ml/cm^3
- K1/k2 (2TCM-c) [2]: 7.86 ml/cm^3 and 4.35 ml/cm^3 and 8.22 ml/cm^3 and 10.99 ml/cm^3
- VT (1TCM) [2]: 12.66 ml/cm^3 and 10.58 ml/cm^3 and 14.25 ml/cm^3 and 13.95 ml/cm^3
- VT (2TCM-c) [2]: 17.46 ml/cm^3 and 11.23 ml/cm^3 and 14.95 ml/cm^3 and 15.47 ml/cm^3
- VT (Logan) [2]: 14.13 ml/cm3 and 11.99 ml/cm3 and 15.12 ml/cm3 and 15.35 ml/cm3
- K1 (2TCM) [3]: 0.36 ml/cm^3 /min and 0.51 ml/cm^3 /min and 0.34 ml/cm^3 /min and 0.38 ml/cm^3 /min
- K1 (2TCM-c) [3]: 0.37 ml/cm^3 /min and 0.54 ml/cm^3 /min and 0.36 ml/cm^3 /min and 0.38 ml/cm^3 /min
- K1/k2 (2TCM) [3]: 12.79 ml/cm^3 and 11.34 ml/cm^3 and 12.88 ml/cm^3
- K1/k2 (2TCM-c) [3]: 7.25 ml/cm^3 and 4.64 ml/cm^3 and 9.07 ml/cm^3 and 10.70 ml/cm^3
- VT (1TCM) [3]: 11.85 ml/cm^3 and 13.85 ml/cm^3 and 14.73 ml/cm^3 and 13.28 ml/cm^3
- VT (2TCM-c) [3]: 11.88 ml/cm^3 and 13.92 ml/cm^3 and 17.03 ml/cm^3 and 13.98 ml/cm^3
- VT (Logan) [3]: 12.16 ml/cm3 and 14.10 ml/cm3 and 17.41 ml/cm3 and 13.62 ml/cm3
